Reference: paper PMC3948684, “Approaches to Improve the Oral Bioavailability and Effects of Novel Anticancer Drugs Berberine and Betulinic Acid” (PLoS ONE, 2014)
Values after ≈ are worked out from the molar mass of the structure shown.

How the values were obtained:
[1] = test system: H1650 metastatic lung tumors; assay: H1650 metastatic lung cancer model; type: in vivo, athymic Nu/nu mice; conditions: 100 mg/kg orally daily for 3 weeks
Procedure: (§1) A549 cells were grown in F12K Medium containing 10% FBS and standard antibiotic mix at 5% CO2 and 37°C. For orthotopic lung tumor model, mice were anesthetized with Isoflurane and a 5 mm skin incision was made to the left chest, 5 mm below the scapula. Hamilton syringes (1 ml) with 28-gauge hypodermic needles were used to inject the cell inoculums through the sixth intercostal space into the left lung. The needle was quickly advanced to a depth of 3 mm and quickly removed after the injection of the A549 cells (2 million/mouse) suspended in 100 µL PBS (pH 7.4) into the lung parenchyma. For metastatic lung tumor models H1650 cells (2 million in 100 µL PBS) were intravenously administered to mice via tail vein. […] Only cell suspensions of >95% viability as determined by tryphan blue exclusion were used. Wounds from the incisions were closed with surgical skin clips. […] Drug treatment was started 2 weeks after the tumor cell implantation. BBR free drug or SD formulation was given orally at the dose of 100 mg/kg daily for 3 weeks. […] Body weights were monitored throughout the study. Animal survival rates were recorded during the study. The lung weights and tumor volumes were used for assessment of therapeutic activity of the treatments. After sacrificing the animals lung weights and tumor nodules were recorded in metastatic tumor models.

Bcl-2 = assay: Real time PCR of tumors; type: in vivo, athymic Nu/nu mice; conditions: normalised to β-actin
Procedure: (§2) Total RNA was extracted from tumors using RNeasy Kit and quantified by UV method using Nanodrop system. RNA was converted to complementary DNA using RT^2 First Strand Kit and RT^2 SYBR Green ROX qPCR Mastermix as per manufacturer's instructions. p38, Phospho-JNK, Bax, Bcl-2, cleaved caspase 8, cleaved caspase 3, survivin and BAD, mRNA expressions amplification was performed on an ABI 7300 RT-PCR (Applied Biosystems, Carlsbad, CA, USA) and data analysis done with a PCR Array Data Analysis Software (SA Biosciences, Valencia, CA, USA). The mRNA levels of p38, Phospho-JNK, Bax, Bcl-2, cleaved caspase 8, cleaved caspase 3, survivin and BAD and β-actin were calculated. The β-actin was a normalization control for gene expression.

p38 = assay: Real time PCR of tumors; type: in vivo, athymic Nu/nu mice; conditions: normalised to β-actin
Procedure: as §2

Bax = assay: Real time PCR of tumors; type: in vivo, athymic Nu/nu mice; conditions: normalised to β-actin
Procedure: as §2

Phospho-JNK = assay: Real time PCR of tumors; type: in vivo, athymic Nu/nu mice; conditions: normalised to β-actin
Procedure: as §2

cleaved caspase-3 = assay: Real time PCR of tumors; type: in vivo, athymic Nu/nu mice; conditions: normalised to β-actin
Procedure: as §2

cleaved caspase-8 = assay: Real time PCR of tumors; type: in vivo, athymic Nu/nu mice; conditions: normalised to β-actin
Procedure: as §2

[2] = test system: A549 orthotopic lung tumors; assay: A549 orthotopic lung cancer model; type: in vivo, athymic Nu/nu mice; conditions: 100 mg/kg orally daily for 3 weeks
Procedure: as §1

[3] = test system: TUNEL positive apoptotic cells; assay: TUNEL assay on orthotopic lung tumor sections; type: in vivo, athymic Nu/nu mice
Procedure: Terminal deoxynucleotidyl transferase-mediated dUTP nick end labeling (TUNEL) assay was used to study the DNA fragmentation or apoptosis detection. TUNEL assay was performed on 4–5 µm thick sections as per the kit manual. Formalin-fixed tumor tissues were embedded in paraffin and sectioned ([…]). DeadEndTM Colorimetric Apoptosis Detection System (Promega, Madison, WI) allows the recognition of apoptotic nuclei in paraffin-embedded tissue sections fixed on slides according to the manufacturer's protocol. Briefly, the equilibration buffer was added to slides and incubated for 10 minutes followed by 10-minute incubation in […] proteinase K solution. The sections were washed in PBS and incubated with TdT enzyme at 37°C for 1 h in a humidified chamber for incorporation of biotinylated nucleotides at the 3-OH ends of DNA. The slides were incubated in horseradish peroxidase-labeled streptavidin to bind the biotinylated nucleotides followed by detection with stable chromagen DAB. The images on the slides were visualized with an Olympus BX40 light microscope equipped with a computer-controlled digital camera (DP71, Olympus Center Valley, PA, USA). Three slides per group were stained and apoptotic cells were identified by dark brown […] staining.

A549 cells = assay: In vitro cytotoxicity, crystal violet staining; type: cell-based; conditions: Homo sapiens, BA, 72 h treatment
Procedure: (§3) NSCLC cells A549 and H1650 were plated in 96 well plates at 10,000 cells/well density. After 24 h, cells were treated with various concentrations of BBR and BA. DMSO (0.1%) treated cells were considered as control cells. After 72 h treatment, cells were fixed in 0.25% gultaraldehyde and stained with 0.05% crystal violet staining. Percent of cell viability or cell kill was calculated by considering DMSO treated control cells as 100% viable (zero % cell kill).

H1650 cells = assay: In vitro cytotoxicity, crystal violet staining; type: cell-based; conditions: Homo sapiens, NCI-H1650; BA, 72 h treatment
Procedure: as §3

[4] = Oral pharmacokinetic study; type: in vivo, Sprague Dawley rats
Procedure: Rats were fasted overnight before the start of the experiments and randomly divided into two experimental groups. […] Pharmacokinetic parameters were analyzed using non-compartmental techniques with WinNonlin® 5.0 software (Pharsight Corporation, Mountain View, CA, USA). SHAM analysis (i.e., Slope, Height, Area, and Moment) utilized plasma concentration-time data to estimate the area under the curve (AUC), apparent terminal elimination rate constant (λz), terminal elimination half-life (t1/2) and the area under the first moment of the plasma concentration–time curve (AUMC). The AUC was calculated for each rat using the piecewise log trapezoidal areas and extrapolated to infinity by dividing λz into the last measured plasma concentration (i.e. Clast/λz). From the values of AUC0_0-∞ and AUMC0-∞, the clearance (CL), mean residence time (MRT) and volume of distribution at tissue equilibrium (Vss) were calculated based on noncompartmental monoexponential assumptions as: CL = Dose/AUC, MRT≅AUMC/AUC and Vss = CL×MRT. The noncompartmental parameters were calculated for each rat before averaging dose groups. The pharmacokinetic parameters such as AUC, Cmax, t1/2, tmax, MRT, etc were compared between the free drug and SD formulations.

[5] = In vitro drug release of BA (USP type II paddle, HPLC); type: physicochemical; conditions: after 24 h; pH 5.8, 2.5% SLS, 37°C
Procedure: In vitro drug release study was conducted in PBS (pH 5.8) containing 1% volpo. Briefly, 50 mg of free drug or equivalent amount of SD form of BBR and BA were dispersed in 500 ml of release medium and the drug release profile was studied at pH 5.8. Release studies were performed according to the USP type II paddle method, at 37±0.5°C while stirring constantly at 50 rpm. Samples were withdrawn at different time points, centrifuged and drug content in the samples was analyzed by spectrometric method of analysis. The withdrawn samples were replaced by equal volumes of fresh medium maintained at the same temperature. Except replacing the 1% Volpo with 2.5% SLS, similar conditions were maintained for the in vitro drug release studies of BA in free drug and SD forms. The released BA concentrations were measured by established HPLC method.

[6] = Sprague Dawley, rat, plasma, po, 100 mg/kg orally

Procedure for Caco-2 cell monolayers: Caco-2 cells (passage #29) were cultured at 37°C with culture medium replaced every 2 days in an atmosphere of 5% CO2 and 95% relative humidity. Cells were harvested upon reaching approximately 80-90% confluence with 0.25% trypsin–EDTA. Cells were grown on 1.12 cm^2 0.4 μm pore polycarbonate membrane inserts in 12 mm × 12 transwell permeable support plates (Corning, NY, USA). Caco-2 cells were seeded onto membranes at 50,000 cells/well. Individual wells received 1.5 mL of culture medium at the bottom and 0.5 mL of medium was added to the top of inserts which was changed on alternate days. Confluent monolayers were used for permeability studies at ~21 days post seeding. Transepithelial electrical resistance (TEER) of Caco-2 monolayers was measured prior to all experiments using the EVOM volt-ohm-meter (Millicell-ERS; Millipore, USA) to ensure monolayer integrity. The TEER (Ω·cm^2) values of the cell monolayers were determined by the resistance (Ω) × effective membrane area (cm^2). TEER values were measured across each cell monolayer prior to beginning the experimentation and at the last sample collection time point. Transport studies were initiated by removing culture medium from the apical (A) and basolateral (B) sides of the cell monolayer. […] The effective permeability (Peff) (cm/s) was determined using Eq. 1: […]

## C=C(C)[C@@H]1CC[C@]2(C(=O)O)CC[C@]3(C)[C@H](CC[C@@H]4[C@@]5(C)CC[C@H](O)C(C)(C)[C@@H]5CC[C@]43C)[C@@H]12 [BA free drug, 3β, hydroxy-lup-20(29)-en-28-oic acid]
[1]
  decrease of tumor nodules in the peripheral lobes: 1.31 fold
  tumor weights reduced to, compared to untreated control: 75.94%
Bcl-2
  Bcl-2 mRNA expression down regulated compared to untreated control: 1.36 fold
p38
  p38 mRNA expression increased compared to control: 1.20 fold
Bax
  Bax mRNA expression increased compared to control: 1.08 fold
Phospho-JNK
  Phospho-JNK mRNA expression increased compared to control: 1.69 fold
Cleaved caspase-3
  cleaved caspase-3 mRNA expression higher than control: 1.30 fold
Cleaved caspase-8
  cleaved caspase-8 mRNA expression higher than control: 1.25 fold
[2]
  lung tumor weights: 404.31 ± 29.50 mg
  reduction in tumor volumes compared to untreated control: 27.72%
  reduction in tumor weights compared to untreated control tumors: Approximately 31.11%
[3]
  increase in TUNEL positive apoptotic cells compared to control tumors: 8.14 fold
A549 cells
  IC50: 8.92 ± 1.68 µg/mL (≈ 19.5 µM)
H1650 cells
  IC50: 7.25 ± 1.54 µg/mL (≈ 15.9 µM)
[4]; 100 mg/kg orally
  CL: 0.113 ± 0.0175 mL/min/kg
[4]; BA, 100 mg/kg orally
  AUMC (0-∞): 116.04±23.13 µg.h^2/ml
  Vd: 0.12243 ± 0.01586 L/kg
[4]; Sprague Dawley, rat, plasma, po, 100 mg/kg, read-out: t½ (converted)
  half-life: 12.3 ± 3.68 h
[4]; [6]
  MRT: 15.1 ± 3.86 h
  Tmax: 2.36 ± 0.38 h
[4]; Sprague Dawley, rat, plasma, po, BA, 100 mg/kg orally
  AUC(0-inf): 7260 ± 1650 ng·h/mL
[4]; Sprague Dawley, rat, po, BA, 100 mg/kg orally, plasma
  Cmax: 1160 ± 220 ng/mL
[5]
  drug release: 11.3%

## Lucifer Yellow
Caco-2 cell monolayers
  mean permeability of paracellular control: < 0.15 ×10⁻⁶ cm/s
